Where two headings read alike, the source gives them in different places.

As usually defined, the DC50 is the concentration at which degradation of the target reaches its halfway point. High values mean degradation only at high concentration, low ones degradation at low concentration. The term IC50 denotes the midpoint of a concentration-inhibition curve.

What all share (type): cell-based
In one test the target is T1, KRAS(G12D) (Homo sapiens, UniProt P01116, G12D).
T1 construct: introduced immediately downstream of the initiating Methionine codon of the endogenous KRAS locus; host or cells: GP5d-HiBit-KRAS(G12D), a CRISPR knock-in at the endogenous locus
Kind of test: HiBit degradation assay in GP5d-HiBit-KRAS(G12D) cells (18 h; DC50, Dmax). The procedure, abridged:
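GP5d cells carry an endogenous N-terminal HiBit tag on KRAS(G12D), knocked in by CRISPR. They were seeded overnight in DMEM/10% FCS, exposed to compound for 18 h at 37° C, then lysed for HiBit luminescence, normalised to DMSO. DC50 comes from a four-parameter logistic fit; Dmax is maximal degradation as % of control.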
Background: HiBiT is a short tag that completes a luciferase, so light tracks the accessible tagged protein.

A further test deals with SW620 cells. The test is described as follows: SW620 cell proliferation assay (colorectal cancer, G12V), 5 days. The conditions noted are these: Homo sapiens, SW-620, 120 h. As to the method: SW620 Cell Proliferation Assay (Colorectal Cancer, G12V)
(§1) SW620 cells (ATCC CCL-227) are dispensed into white bottom opaque 96 well plates (Perkin Elmer cat no. 5680) at a density of 2000 cells per well in 100 μL DMEM (BioWhittaker, Cat #BE12-605F) supplemented with 10% FCS. […] Compounds (10 mM stock in DMSO) are added at logarithmic dose series using the HP Digital Dispenser D300 (Tecan), normalizing for added DMSO. For the TO time point measurement, untreated cells are analysed at the time of compound addition. Plates are incubated for 5 days, and cell viability is measured using CellTiter-Glo luminescent cell viability reagent (Promega, Cat. No G7570). Viability (stated as percent of control) is defined as relative luminescence units RLU of each well divided by the RLU of cells in DMSO controls. IC50 values were computed from relative viability values using a four parametric logistic model.

The next test deals with T2, KRAS4B G12D (Homo sapiens, UniProt P01116, G12D).
T2 construct: HiBit; expressed in transfected cells; host or cells: GP5d cells (ECACC 95090715), stably transduced with lentivirus, CMV promoter
The test is described as follows: HiBit KRAS4B mutant spectrum degradation assay, KRAS4B G12D in GP5d cells (18 h). The conditions noted are these: KRAS mutation G12D. The source says:
(§2) The therapeutically relevant mutant KRAS constructs (WT, G12C, G12D, G12V, G13D) were obtained by site directed mutagenesis using a KRAS4B WT cDNA construct as a template. GP5d cells (ECACC Cat. No. 95090715) were transduced with lentiviral vectors expressing mutant KRAS4B cDNA under control of a CMV promoter. Stably transduced cells were selected using a neomycin selectable marker encoded on the construct.
(§3) To assess PROTAC-mediated degradation of various KRAS mutants, GP5d cells stably transduced with KRAS4B constructs as described above were seeded at 25000 cells per well in 100 μL Dulbecco's Modified Eagle medium (Sigma cat. no. D6429) supplemented with 10% fetal calf serum into white bottom opaque 96 well plates (Perkin Elmer cat no. 5680). Plates were incubated at 37° C., 5% CO2 in a humidified incubator over night to allow the cells to adhere. […] Plates were further incubated at 37° C. for 18 hours. Following incubation, 100 μL per well Promega Nano-Glo HiBit lytic detection reagent mix (Promega Nano-Glo HiBit Lytic Detection System #N3050), prepared according to the manufacturer's instructions in the kit, were added. To allow for adequate cell lysis, plates were incubated on an orbital shaker for 15 min and further incubated 30 min at room temperature. Upon completion of cell lysis, luminescence was measured using an Envision plate reader using the Ultrasensitive Luminescence Protocol for 96 well plates. Luminescence levels were normalized by the values obtained with DMSO-treated samples and plotted as percent of DMSO control. DC50 values were computed using a four parametric logistic model and are reported in nM in Table 65 for representative example (Ex.) compounds of the invention. Dmax values represent the maximal extent of degradation observed and is stated as percent of control (% Ctrl.) treatments in Table 66 for representative example (Ex.) compounds of the invention.

In a further test the test system is NCI-H358 cells. The test is described as follows: NCI-H358 CTG proliferation assay (120 h) (NSCLC, G12C). The conditions noted are these: Homo sapiens. The procedure, abridged: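 NCI-H358 cells (KRAS G12C) were seeded at 2000/well (assay 1) or 200/well (assay 2) in RPMI-1640 + 10% FCS and dosed with a logarithmic series, DMSO-normalized. After 120 h, viability was read by CellTiter-Glo luminescence as percent of DMSO control, with a T0 read at dosing. IC50 came from a four-parameter fit.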

The target in the next test is T3, KRAS4B G13D (Homo sapiens, UniProt P01116, G13D).
T3 construct: HiBit; expressed in transfected cells; host or cells: GP5d cells (ECACC 95090715), stably transduced with lentivirus, CMV promoter
Kind of test: HiBit KRAS4B mutant spectrum degradation assay, KRAS4B G13D in GP5d cells (18 h). The settings on record: KRAS mutation G13D.
Excerpt: as §2, §3

The next test concerns GP5d cells. Kind of test: GP5d cell proliferation assay (colorectal cancer, G12D), 5 days. The conditions noted are these: Homo sapiens, 120 h. As to the method:
GP5d Cell Proliferation Assay (Colorectal Cancer, G12D)
as §1, with “GP5d” for “SW620”, “(ECACC 95090715)” for “(ATCC CCL-227)”, “plates” for “plates (Perkin Elmer cat no. 5680)”, “5000” for “2000”

For another test, the target named is T4, KRAS4B G12V (Homo sapiens, UniProt P01116, G12V).
T4 construct: HiBit; expressed in transfected cells; host or cells: GP5d cells (ECACC 95090715), stably transduced with lentivirus, CMV promoter
The test is described as follows: HiBit KRAS4B mutant spectrum degradation assay, KRAS4B G12V in GP5d cells (18 h). The settings on record: KRAS mutation G12V.
Excerpt: as §2, §3

In the next test the target is T5, KRAS4B WT (Homo sapiens, UniProt P01116).
T5 construct: HiBit; expressed in transfected cells; host or cells: GP5d cells (ECACC 95090715), stably transduced with lentivirus, CMV promoter
The test is described as follows: HiBit KRAS4B mutant spectrum degradation assay, KRAS4B WT in GP5d cells (18 h). The conditions noted are these: KRAS mutation G12WT.
Excerpt: as §2, §3

T3 sequence (P01116 1-188 isoform P01116-2 G13D): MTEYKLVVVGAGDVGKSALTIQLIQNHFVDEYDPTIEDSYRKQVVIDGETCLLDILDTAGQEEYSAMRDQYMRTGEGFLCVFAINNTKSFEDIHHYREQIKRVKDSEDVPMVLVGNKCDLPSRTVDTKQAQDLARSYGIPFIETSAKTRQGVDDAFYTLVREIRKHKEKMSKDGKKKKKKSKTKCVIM
T5 sequence (P01116 1-188 isoform P01116-2): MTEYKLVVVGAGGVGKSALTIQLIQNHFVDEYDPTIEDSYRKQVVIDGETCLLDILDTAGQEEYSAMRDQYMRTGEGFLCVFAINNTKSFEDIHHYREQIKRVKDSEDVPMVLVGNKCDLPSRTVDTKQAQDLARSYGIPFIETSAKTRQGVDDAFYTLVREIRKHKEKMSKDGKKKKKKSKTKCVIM
T4 sequence (P01116 1-188 isoform P01116-2 G12V): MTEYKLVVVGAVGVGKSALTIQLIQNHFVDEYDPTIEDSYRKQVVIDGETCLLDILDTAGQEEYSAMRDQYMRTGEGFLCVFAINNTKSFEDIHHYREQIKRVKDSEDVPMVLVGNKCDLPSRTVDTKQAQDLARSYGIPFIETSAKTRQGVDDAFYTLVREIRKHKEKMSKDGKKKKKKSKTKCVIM
T1 sequence (P01116 1-188 isoform P01116-2 G12D): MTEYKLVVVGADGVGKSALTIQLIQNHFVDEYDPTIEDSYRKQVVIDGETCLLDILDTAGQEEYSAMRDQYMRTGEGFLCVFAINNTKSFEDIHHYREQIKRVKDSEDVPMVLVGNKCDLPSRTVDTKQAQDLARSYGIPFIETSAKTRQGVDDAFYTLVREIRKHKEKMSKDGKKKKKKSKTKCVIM
T2 sequence (P01116 1-188 isoform P01116-2 G12D): as above

As for `Cc1ncsc1-c1ccc(CNC(=O)[C@@H]2C[C@@H](O)CN2C(=O)[C@@H](NC(=O)CCCCCN2CCCN(c3nccc(-c4noc([C@@]5(C)CCCc6sc(N)c(C#N)c65)n4)n3)[C@@H](C)C2)C(C)(C)C)cc1` [I-47], the DC50 turned out to be 47.7 nM at KRAS(G12D); 48 nM at KRAS4B G12D; 44.9 nM at KRAS4B G13D; 98.8 nM at KRAS4B G12V; 36.2 nM at KRAS4B WT. Besides, the “Dmax 18 h” value on KRAS(G12D) stood at 94 % Ctrl. For the same compound, the IC50 in the test on SW620 cells amounted to 280 nM; with NCI-H358 cells (assay 1, read-out: H358 (assay 1) IC50) it was 2500 nM; in the test with NCI-H358 cells (assay 2, read-out: H358 (assay 2) IC50) it was 168 nM; in the test with GP5d cells, 141 nM. Also, the “Dmax at 18 h” value at KRAS4B G12D is 94 % Ctrl; on KRAS4B G13D, 90 % Ctrl; on KRAS4B G12V, 90 % Ctrl; at KRAS4B WT, 95.4 % Ctrl.
